According to patent US5556744A, “Methods and compositions for diagnosing and treating certain HIV infected patients” (The Trustees of the University of Pennsylvania, priority 1994, dated 1996):

Assays:
[1] = system: maternal HIV+ sera (antibodies); assay: RIA / ELISA binding of maternal HIV+ sera to gp120 and gp41 peptides (Example 3); design: species or system human
Procedure, shortened: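 Maternal sera, diluted 1:50 and 1:500, were bound overnight at 4°C to peptides immobilized at 10 μg/ml (pH 9.6 carbonate) and blocked with 1% BSA. Read-out was ¹²⁵I-labelled anti-human IgG counts or HRP-TMB OD450. Signal with peptide minus without was expressed relative to seronegative serum.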

[2] = system: maternal sera (antibodies); assay: ELISA peptide-binding of maternal sera (Example 6); design: species or system human; conditions: for Number of Non-Transmitters which bound to peptide / Percent of Non-Transmitters which bound to peptide: N = 12; for Number of Transmitters which bound to peptide / Percent of Transmitters which bound to peptide: N = 4
Procedure, shortened: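 HIV-1 envelope peptides averaging 16 amino acids, covering external and transmembrane glycoprotein, were probed by ELISA. Third-trimester maternal sera, classed as transmitter or non-transmitter by child diagnosis, were each run on at least 40 peptides. Values give percent of sera binding a peptide.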

[3] = Serum No. 1, Non-Transmission Group
[4] = Serum No. 2, Non-Transmission Group
[5] = Serum No. 3, Non-Transmission Group
[6] = Serum No. 4, Transmission Group
[7] = Serum No. 5, Transmission Group
[8] = Serum No. 6, Non-Transmission Group
[9] = Serum No. 7, Non-Transmission Group
[10] = Serum No. 8, Non-Transmission Group
[11] = Serum No. 9, Non-Transmission Group
[12] = Serum No. 10, Transmission Group
[13] = Serum No. 11, Non-Transmission Group
[14] = Serum No. 12, Non-Transmission Group
[15] = Serum No. 13, Transmission Group
[16] = Serum No. 14, Transmission Group
[17] = Serum No. 15, Transmission Group
[18] = Serum No. 16, Non-Transmission Group
[19] = Serum No. 17, Non-Transmission Group
[20] = Serum No. 18, Non-Transmission Group
[21] = Serum No. 19, Transmission Group
[22] = Serum No. 20, Non-Transmission Group

Sequence | Binding of maternal HIV+ serum to peptide (sera/NHS ratio) [1, 3] | Binding of maternal HIV+ serum to peptide (sera/NHS ratio) [1, 4] | Binding of maternal HIV+ serum to peptide (sera/NHS ratio) [1, 5] | Binding of maternal HIV+ serum to peptide (sera/NHS ratio) [1, 6] | Binding of maternal HIV+ serum to peptide (sera/NHS ratio) [1, 7] | Binding of maternal HIV+ serum to peptide (sera/NHS ratio) [1, 8] | Binding of maternal HIV+ serum to peptide (sera/NHS ratio) [1, 9] | Binding of maternal HIV+ serum to peptide (sera/NHS ratio) [1, 10] | Binding of maternal HIV+ serum to peptide (sera/NHS ratio) [1, 11] | Binding of maternal HIV+ serum to peptide (sera/NHS ratio) [1, 12] | Binding of maternal HIV+ serum to peptide (sera/NHS ratio) [1, 13] | Binding of maternal HIV+ serum to peptide (sera/NHS ratio) [1, 14] | Binding of maternal HIV+ serum to peptide (sera/NHS ratio) [1, 15] | Binding of maternal HIV+ serum to peptide (sera/NHS ratio) [1, 16] | Binding of maternal HIV+ serum to peptide (sera/NHS ratio) [1, 17] | Binding of maternal HIV+ serum to peptide (sera/NHS ratio) [1, 18] | Binding of maternal HIV+ serum to peptide (sera/NHS ratio) [1, 19] | Binding of maternal HIV+ serum to peptide (sera/NHS ratio) [1, 20] | Binding of maternal HIV+ serum to peptide (sera/NHS ratio) [1, 21] | Binding of maternal HIV+ serum to peptide (sera/NHS ratio) [1, 22] | further results
VSLKCTDLKNDTNTN [Peptide 97] | - (specific OD450 or cpm of sera sample binding to peptide divided by the specific OD450 or cpm of NHS sample binding to peptide, which value is less than 2) | - (specific OD450 or cpm of sera sample binding to peptide divided by the specific OD450 or cpm of NHS sample binding to peptide, which value is less than 2) | - (specific OD450 or cpm of sera sample binding to peptide divided by the specific OD450 or cpm of NHS sample binding to peptide, which value is less than 2) | - (specific OD450 or cpm of sera sample binding to peptide divided by the specific OD450 or cpm of NHS sample binding to peptide, which value is less than 2) | - (specific OD450 or cpm of sera sample binding to peptide divided by the specific OD450 or cpm of NHS sample binding to peptide, which value is less than 2) | - (specific OD450 or cpm of sera sample binding to peptide divided by the specific OD450 or cpm of NHS sample binding to peptide, which value is less than 2) | - (specific OD450 or cpm of sera sample binding to peptide divided by the specific OD450 or cpm of NHS sample binding to peptide, which value is less than 2) | - (specific OD450 or cpm of sera sample binding to peptide divided by the specific OD450 or cpm of NHS sample binding to peptide, which value is less than 2) | - (specific OD450 or cpm of sera sample binding to peptide divided by the specific OD450 or cpm of NHS sample binding to peptide, which value is less than 2) | - (specific OD450 or cpm of sera sample binding to peptide divided by the specific OD450 or cpm of NHS sample binding to peptide, which value is less than 2) | - (specific OD450 or cpm of sera sample binding to peptide divided by the specific OD450 or cpm of NHS sample binding to peptide, which value is less than 2) | - (specific OD450 or cpm of sera sample binding to peptide divided by the specific OD450 or cpm of NHS sample binding to peptide, which value is less than 2) | - (specific OD450 or cpm of sera sample binding to peptide divided by the specific OD450 or cpm of NHS sample binding to peptide, which value is less than 2) | - (specific OD450 or cpm of sera sample binding to peptide divided by the specific OD450 or cpm of NHS sample binding to peptide, which value is less than 2) | - (specific OD450 or cpm of sera sample binding to peptide divided by the specific OD450 or cpm of NHS sample binding to peptide, which value is less than 2) | - (specific OD450 or cpm of sera sample binding to peptide divided by the specific OD450 or cpm of NHS sample binding to peptide, which value is less than 2) | - (specific OD450 or cpm of sera sample binding to peptide divided by the specific OD450 or cpm of NHS sample binding to peptide, which value is less than 2) | - (specific OD450 or cpm of sera sample binding to peptide divided by the specific OD450 or cpm of NHS sample binding to peptide, which value is less than 2) | - (specific OD450 or cpm of sera sample binding to peptide divided by the specific OD450 or cpm of NHS sample binding to peptide, which value is less than 2) | - (specific OD450 or cpm of sera sample binding to peptide divided by the specific OD450 or cpm of NHS sample binding to peptide, which value is less than 2) | Binding of maternal sera to peptide (in words) ([1]; Example 3): No binding; Number of Non-Transmitters which bound to peptide [2]: 2; Percent of Non-Transmitters which bound to peptide [2]: 16.7%; Number of Transmitters which bound to peptide [2]: 0; Percent of Transmitters which bound to peptide [2]: 0%
FSYHRLRDLLLIVTR [Peptide 132] | + (which value is between 2 to 3) | - (specific OD450 or cpm of sera sample binding to peptide divided by the specific OD450 or cpm of NHS sample binding to peptide, which value is less than 2) | - (specific OD450 or cpm of sera sample binding to peptide divided by the specific OD450 or cpm of NHS sample binding to peptide, which value is less than 2) | - (specific OD450 or cpm of sera sample binding to peptide divided by the specific OD450 or cpm of NHS sample binding to peptide, which value is less than 2) | - (specific OD450 or cpm of sera sample binding to peptide divided by the specific OD450 or cpm of NHS sample binding to peptide, which value is less than 2) | - (specific OD450 or cpm of sera sample binding to peptide divided by the specific OD450 or cpm of NHS sample binding to peptide, which value is less than 2) | - (specific OD450 or cpm of sera sample binding to peptide divided by the specific OD450 or cpm of NHS sample binding to peptide, which value is less than 2) | - (specific OD450 or cpm of sera sample binding to peptide divided by the specific OD450 or cpm of NHS sample binding to peptide, which value is less than 2) | + (which value is between 2 to 3) | - (specific OD450 or cpm of sera sample binding to peptide divided by the specific OD450 or cpm of NHS sample binding to peptide, which value is less than 2) | - (specific OD450 or cpm of sera sample binding to peptide divided by the specific OD450 or cpm of NHS sample binding to peptide, which value is less than 2) | - (specific OD450 or cpm of sera sample binding to peptide divided by the specific OD450 or cpm of NHS sample binding to peptide, which value is less than 2) | - (specific OD450 or cpm of sera sample binding to peptide divided by the specific OD450 or cpm of NHS sample binding to peptide, which value is less than 2) | - (specific OD450 or cpm of sera sample binding to peptide divided by the specific OD450 or cpm of NHS sample binding to peptide, which value is less than 2) | - (specific OD450 or cpm of sera sample binding to peptide divided by the specific OD450 or cpm of NHS sample binding to peptide, which value is less than 2) | - (specific OD450 or cpm of sera sample binding to peptide divided by the specific OD450 or cpm of NHS sample binding to peptide, which value is less than 2) | - (specific OD450 or cpm of sera sample binding to peptide divided by the specific OD450 or cpm of NHS sample binding to peptide, which value is less than 2) | - (specific OD450 or cpm of sera sample binding to peptide divided by the specific OD450 or cpm of NHS sample binding to peptide, which value is less than 2) | - (specific OD450 or cpm of sera sample binding to peptide divided by the specific OD450 or cpm of NHS sample binding to peptide, which value is less than 2) | - (specific OD450 or cpm of sera sample binding to peptide divided by the specific OD450 or cpm of NHS sample binding to peptide, which value is less than 2) | Number of Non-Transmitters which bound to peptide [2]: 1; Percent of Non-Transmitters which bound to peptide [2]: 83%; Number of Transmitters which bound to peptide [2]: 0; Percent of Transmitters which bound to peptide [2]: 0%
